From ChEMBL document CHEMBL4616634, “4β-Hydroxywithanolide E from Goldenberry (Whole Fruits of Physalis peruviana L.) as a Promising Agent against Chronic Obstructive Pulmonary Disease” (J Nat Prod, 2020)
Active and inactive are the calls of the source.

Columns and labels:
Type in all cases: functional, organism-based
Mus musculus [1] = experiment: Antiinflammatory activity in C57BL/6 mouse model of CS-induced pulmonary injury assessed as reduction in thickening of the alveolar septa in lungs at 50 mg/kg, ip for 5 days by hematoxylin and eosin staining based fluorescence microscopic analysis
Mus musculus [2] = experiment: Antiinflammatory activity in C57BL/6 mouse model of CS-induced pulmonary injury assessed as reduction in hyperplasia of pneumo-cytes in lungs at 50 mg/kg, ip for 5 days by hematoxylin and eosin staining based fluorescence microscopic analysis
Mus musculus [3] = experiment: Antiinflammatory activity in C57BL/6 mouse model of CS-induced pulmonary injury assessed as reduction in distinct infiltration of leukocytes in lungs at 50 mg/kg, ip for 5 days by hematoxylin and eosin staining based fluorescence microscopic analysis
Mus musculus [4] = experiment: Antiinflammatory activity in C57BL/6 mouse model of CS-induced pulmonary injury assessed as reduction in goblet cell hyperplasia in peribronchial in lungs at 50 mg/kg, ip for 5 days by hematoxylin and eosin staining based fluorescence microscopic analysis
Mus musculus [5] = experiment: Antiinflammatory activity in C57BL/6 mouse model of CS-induced pulmonary injury assessed as reduction in goblet cell hyperplasia in perivascular areas in lungs at 50 mg/kg, ip for 5 days by hematoxylin and eosin staining based fluorescence microscopic analysis
Mus musculus [6] = experiment: Antiinflammatory activity in C57BL/6 mouse model of CS-induced pulmonary injury assessed as reduction in 8-oxo-dG in lungs at 50 mg/kg, ip for 5 days by ELISA
Mus musculus [7] = experiment: Antiinflammatory activity in C57BL/6 mouse model of CS-induced pulmonary injury assessed as reduction in thickening of the alveolar septa in lungs at 1 mg/kg, ip for 5 days by hematoxylin and eosin staining based fluorescence microscopic analysis
Mus musculus [8] = experiment: Antiinflammatory activity in C57BL/6 mouse model of CS-induced pulmonary injury assessed as reduction in hyperplasia of pneumo-cytes in lungs at 1 mg/kg, […] by hematoxylin and eosin staining based fluorescence microscopic analysis
Mus musculus [9] = experiment: Antiinflammatory activity in C57BL/6 mouse model of CS-induced pulmonary injury assessed as reduction in distinct infiltration of leukocytes in lungs at 1 mg/kg, ip for 5 days by hematoxylin and eosin staining based fluorescence microscopic analysis
Mus musculus [10] = experiment: Antiinflammatory activity in C57BL/6 mouse model of CS-induced pulmonary injury assessed as reduction in goblet cell hyperplasia in peribronchial in lungs at 1 mg/kg, ip for 5 days by hematoxylin and eosin staining based fluorescence microscopic analysis
Mus musculus [11] = experiment: Antiinflammatory activity in C57BL/6 mouse model of CS-induced pulmonary injury assessed as reduction in goblet cell hyperplasia in perivascular areas in lungs at 1 mg/kg, ip for 5 days by hematoxylin and eosin staining based fluorescence microscopic analysis
Mus musculus [12] = experiment: Antiinflammatory activity in C57BL/6 mouse model of CS-induced pulmonary injury assessed as reduction in 8-oxo-dG in lungs at 1 mg/kg, ip for 5 days by ELISA

Measured: Activity

CC(C)(C)c1cc(O)ccc1O
active: Mus musculus [1] | Mus musculus [2] | Mus musculus [3] | Mus musculus [4] | Mus musculus [5] | Mus musculus [6]

C[C@@H]1C[C@H]2[C@@H]3CCC4=CC(=O)C=C[C@]4(C)[C@@]3(F)[C@@H](O)C[C@]2(C)[C@@]1(O)C(=O)CO
active: Mus musculus [7] | Mus musculus [8] | Mus musculus [9] | Mus musculus [10] | Mus musculus [11] | Mus musculus [12]
